Source: patent US20110306597A1, “Nicotinamide Derivatives” (priority 2008, published 2011)

Target: human recombinant H-PGDS (Homo sapiens, UniProt O60760)
Assay: Fluorescence Intensity h-PGDS TBA Enzyme Assay
Format: biochemical
Conditions: 1:175,000 human recombinant H-PGDS, highest inhibitor concentration typically 1 μM
Procedure, shortened: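 Recombinant human H-PGDS preincubated 10 min at room temperature with inhibitor in 100 mM Tris pH 8.0, 100 μM MgCl2, 2.5 mM glutathione, 0.5% DMSO; 5.0 μM PGH2 added, stopped after 42 s with FeCl2/citric acid. Remaining PGH2 measured as MDA–TBA fluorescence (ex 530/em 565 nm); IC50 by 4-parameter fit, 11 concentrations.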

human recombinant H-PGDS, sequence (O60760 whole entry): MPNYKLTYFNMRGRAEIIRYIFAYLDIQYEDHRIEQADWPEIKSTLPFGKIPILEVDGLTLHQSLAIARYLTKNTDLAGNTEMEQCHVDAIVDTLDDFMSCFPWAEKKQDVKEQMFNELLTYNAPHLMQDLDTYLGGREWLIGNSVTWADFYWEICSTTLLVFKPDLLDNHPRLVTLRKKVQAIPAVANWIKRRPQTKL

Row | SMILES | IC50
1 | O=C(NCCSCCO)c1ccc(-c2cccc(F)c2)nc1 [Example 440, 6-(3-Fluorophenyl)-N-{2-[(2-hydroxyethyl)thio]ethyl} nicotinamide] | 14.4 nM
2 | COc1cccc(-c2ccc(C(=O)NCc3ccc(Cl)c(Cl)c3)cn2)c1 [Example 483, N-(3,4-Dichlorobenzyl)-6-(3-methoxyphenyl) nicotinamide] | 151 nM
3 | O=C(NCCn1nnc2ccccc21)c1ccc(-c2cccc(F)c2)nc1 [Example 82, N-[2-(1H-Benzotriazol-1-yl)ethyl]-6-(3-fluorophenyl)nicotinamide] | 21.5 nM
4 | O=C(NCC(c1ccccc1Cl)N1CCOCC1)c1ccc(-c2cccc(F)c2)nc1 (stereo not shown) [Example 445, N-[2-(2-Chlorophenyl)-2-morpholin-4-ylethyl]-6-(3-fluorophenyl)nicotinamide] | 589 nM
5 | O=C(NC[C@@H]1CCCN2CCCC[C@H]12)c1ccc(-c2cccc(F)c2)nc1 [Example 73, 6-(3-Fluorophenyl)-N-[(1S,9aR)-octahydro-2H-quinolizin-1-ylmethyl]nicotinamide] | 92.9 nM
6 | Cc1cccc(-c2ccc(C(=O)NCCc3nc(C)no3)cn2)c1 [Example 233, N-[2-(3-Methyl-1,2,4-oxadiazol-5-yl)ethyl]-6-(3-methylphenyl)nicotinamide] | 85.5 nM
7 | COc1cccc(-c2ccc(C(=O)NCCNc3ccccc3)cn2)c1 [Example 486, N-(2-Anilinoethyl)-6-(3-methoxyphenyl)nicotinamide] | 204 nM
8 | COc1cccc(-c2ccc(C(=O)NCCN3CCOCC3)cn2)c1 [Example 332, 6-(3-Methoxyphenyl)-N-(2-morpholin-4-ylethyl)nicotinamide] | 326 nM
9 | O=C(NCc1cc(F)cc2c1OCOC2)c1ccc(-c2ccc(F)cc2)nc1 [Example 472, N-[(6-Fluoro-4H-1,3-benzodioxin-8-yl)methyl]-6-(4-fluorophenyl)nicotinamide] | 256 nM
10 | Cc1cccc(-c2ccc(C(=O)NCc3cc(F)cc4c3OCOC4)cn2)c1 [Example 312, N-[(6-Fluoro-4H-1,3-benzodioxin-8-yl)methyl]-6-(3-methylphenyl)nicotinamide] | 19.9 nM
11 | Cc1cccc(-c2ccc(C(=O)NCC(C)(C)CN(C)C)cn2)c1 [Example 242, N-[3-(Dimethylamino)-2,2-dimethylpropyl]-6-(3-methylphenyl)nicotinamide] | 300 nM
12 | O=C(NCC1CCCN(c2ccccn2)C1)c1ccc(-c2cccc(F)c2)nc1 (stereo not shown) [Example 14, 6-(3-Fluorophenyl)-N-[(1-pyridin-2-ylpiperidin-3-yl)methyl]nicotinamide] | 9.18 nM
13 | O=C(NCCC1CCCCO1)c1cnc(-c2cccc(F)c2)c(Cl)c1 (stereo not shown) [Example 553, 5-Chloro-6-(3-fluorophenyl)-N-[2-(tetrahydro-2H-pyran-2-yl)ethyl]nicotinamide] | 31.8 nM
14 | O=C(NCCc1cccs1)c1ccc(-c2cccc(F)c2)nc1 [Example 430, 6-(3-Fluorophenyl)-N-[2-(2-thienyl)ethyl]nicotinamide] | 11.7 nM
15 | O=C(NCC1CN(Cc2ccccn2)C(=O)CO1)c1ccc(-c2cccc(F)c2)nc1 (stereo not shown) [Example 67, 6-(3-Fluorophenyl)-N-{[5-oxo-4-(pyridin-2-ylmethyl)morpholin-2-yl]methyl}nicotinamide] | 31.9 nM
16 | C[C@@H](NC(=O)c1ccc(-c2cccc(F)c2)nc1)[C@@H](O)c1ccccc1 [Example 81, 6-(3-Fluorophenyl)-N-[(1R,2S)-2-hydroxy-1-methyl-2-phenethyl]nicotinamide] | 41.2 nM
17 | CS(=O)(=O)CCNC(=O)c1ccc(-c2cccc(F)c2)nc1 [Example 28, 6-(3-Fluorophenyl)-N-[2-(methylsulfonyl)ethyl] nicotinamide] | 47.1 nM
18 | CC(C)OCCCN1CC(CNC(=O)c2ccc(-c3cccc(F)c3)nc2)OCC1=O (stereo not shown) [Example 216, 6-(3-Fluorophenyl)-N-{[4-(3-isopropoxypropyl)-5-oxomorpholin-2-yl]methyl}nicotinamide] | 128 nM
19 | Cc1cccc(-c2ccc(C(=O)NCCN3CCN(Cc4ccccc4)CC3)cn2)c1 [Example 249, N-[2-(4-Benzylpiperazin-1-yl)ethyl]-6-(3-methylphenyl)nicotinamide] | 29.8 nM
20 | O=C(NCC1CCCCO1)c1ccc(-c2cccc(F)c2)nc1 (stereo not shown) [Example 525, 6-(3-Fluorophenyl)-N-(tetrahydro-2H-pyran-2-ylmethyl)nicotinamide] | 68.5 nM
21 | O=C(NC[C@@H]1COc2ccccc2C1)c1ccc(-c2cccc(F)c2)nc1 [Example 572] | 0.886 nM
22 | CCN(CC)CCCCNC(=O)c1ccc(-c2cccc(F)c2)nc1 [Example 102, N-[4-(Diethylamino)butyl]-6-(3-fluorophenyl)nicotinamide] | 86.3 nM
23 | O=C(NCc1ccco1)c1ccc(-c2ccccc2)nc1 [Example 379, N-(2-Furylmethyl)-6-phenylnicotinamide] | 4.79 nM

Row | SMILES | IC50
24 | Cc1ccc2c(c1C)OCCC2NC(=O)c1ccc(-c2cccc(F)c2)nc1 (stereo not shown) [Example 531, N-(7,8-Dimethyl-3,4-dihydro-2H-chromen-4-yl)-6-(3-fluorophenyl)nicotinamide] | 3.34 nM
25 | Cc1ccc2c(c1C)OCCC2NC(=O)c1ccc(-c2cc(F)cc(F)c2)nc1 (stereo not shown) [Example 538, 6-(3,5-Difluorophenyl)-N-(7,8-dimethyl-3,4-dihydro-2H-chromen-4-yl)nicotinamide] | 30.1 nM
26 | Cn1ccnc1C(NC(=O)c1ccc(-c2cccc(F)c2)nc1)c1c(F)cccc1F (stereo not shown) [Example 25, N-[(2,6-Difluorophenyl)(1-methyl-1H-imidazol-2-yl)methyl]-6-(3-fluorophenyl)nicotinamide] | 399 nM
27 | CCOC(=O)c1nnc(CNC(=O)c2ccc(-c3cccc(F)c3)nc2)o1 [Example 217, Ethyl 5-[({[6-(3-fluorophenyl)pyridin-3-yl]carbonyl}amino)methyl]-1,3,4-oxadiazole-2-carboxylate] | 39.9 nM
28 | O=C(NC1CCN(Cc2ccc(Cl)c(Cl)c2)C1=O)c1ccc(-c2cccc(F)c2)nc1 (stereo not shown) [Example 160, N-[1-(3,4-Dichlorobenzyl)-2-oxopyrrolidin-3-yl]-6-(3-fluorophenyl)nicotinamide] | 40.8 nM
29 | Cc1cccc(-c2ccc(C(=O)NCc3ccc(Cl)cc3)cn2)c1 [Example 451, N-(4-Chlorobenzyl)-6-(3-methylphenyl)nicotinamide] | 234 nM
30 | COc1cccc([C@H](C)NC(=O)c2ccc(-c3cccc(F)c3)nc2)c1 [Example 436, 6-(3-Fluorophenyl)-N-[(1S)-1-(3-methoxyphenyl)ethyl] nicotinamide] | 6.12 nM
31 | CCCOCCCNC(=O)c1ccc(-c2cc(F)cc(F)c2)nc1 [Example 569, 6-(3,5-Difluorophenyl)-N-(3-propoxypropyl)nicotinamide] | 25.1 nM
32 | Cc1ccc(CN2CCC(NC(=O)c3ccc(-c4cccc(F)c4)nc3)C2=O)cc1 (stereo not shown) [Example 193, 6-(3-Fluorophenyl)-N-[1-(4-methylbenzyl)-2-oxopyrrolidin-3-yl]nicotinamide] | 2.23 nM
33 | CC(C)CNC(=O)c1ccc(-c2ccccc2)nc1 [Example 378, N-Isobutyl-6-phenylnicotinamide] | 21 nM
34 | O=C(NCCN1CCCC1)c1ccc(-c2cccc(F)c2)nc1 [Example 422, 6-(3-Fluorophenyl)-N-(2-pyrrolidin-1-ylethyl)nicotinamide] | 159 nM
35 | O=C(NCc1ccc(Cl)c(Cl)c1)c1ccc(-c2ccccc2)nc1 [Example 522, N-(3,4-Dichlorobenzyl)-6-phenylnicotinamide] | 25 nM
36 | Cc1cccc(-c2ccc(C(=O)NCCc3cccs3)cn2)c1 [Example 321, 6-(3-Methylphenyl)-N-[2-(2-thienyl)ethyl]nicotinamide] | 84.5 nM
37 | CCOC(=O)CCCNC(=O)c1ccc(-c2ccccc2)nc1 [Example 386, Ethyl 4-{[(6-phenylpyridin-3-yl)carbonyl]amino}butanoate] | 23.2 nM
38 | COC(=O)[C@H](Cc1ccc(Cl)cc1)NC(=O)c1ccc(-c2ccc(F)cc2)nc1 [Example 509, Methyl 4-chloro-N-{[6-(4-fluorophenyl)pyridin-3-yl]carbonyl}phenylalaninate] | ≥ 1000 nM
39 | O=C(CNC(=O)c1ccc(-c2ccccc2)nc1)OCc1ccccc1 [Example 367, Benzyl N-[(6-phenylpyridin-3-yl)carbonyl]glycinate] | 6.6 nM
40 | CCC1CCN(CCNC(=O)c2ccc(-c3ccc(F)cc3)nc2)CC1 [Example 468, N-[2-(4-Ethylpiperidin-1-yl)ethyl]-6-(4-fluorophenyl)nicotinamide] | 688 nM
41 | Cc1cnc(CN2C(=O)CCC2CCNC(=O)c2ccc(-c3cccc(F)c3)nc2)cn1 (stereo not shown) [Example 56, 6-(3-Fluorophenyl)-N-(2-{1-[(5-methylpyrazin-2-yl)methyl]-5-oxopyrrolidin-2-yl}ethyl)nicotinamide] | 19.8 nM
42 | Cc1cn2cc(CNC(=O)c3ccc(-c4cccc(F)c4)nc3)nc2s1 [Example 94, 6-(3-Fluorophenyl)-N-[(2-methylimidazo[2,1-b][1,3]thiazol-6-yl)methyl]nicotinamide] | 14.8 nM
43 | COc1ccc(OC)c(C(O)CNC(=O)c2ccc(-c3cccc(F)c3)nc2)c1 (stereo not shown) [Example 50, N-[2-(2,5-Dimethoxyphenyl)-2-hydroxyethyl]-6-(3-fluorophenyl)nicotinamide] | 8.14 nM
44 | CCOC(=O)C(CNC(=O)c1ccc(-c2cccc(F)c2)nc1)c1c(F)cccc1F (stereo not shown) [Example 163, Ethyl 2-(2,6-difluorophenyl)-3-({[6-(3-fluorophenyl)pyridin-3-yl]carbonyl}amino)propanoate] | 146 nM
45 | CCOC(=O)CC(NC(=O)c1ccc(-c2ccc(F)cc2)nc1)c1ccccc1 (stereo not shown) [Example 258, Ethyl 3-({[6-(4-fluorophenyl)pyridin-3-yl]carbonyl}amino)-3-phenylpropanoate] | 715 nM
46 | O=C(Nc1ccc(F)cc1)c1ccc(-c2ccccc2)nc1 [Example 521, N-(4-Fluorophenyl)-6-phenylnicotinamide] | 4.82 nM
